Holding throughout (test): NCI tumour cell line growth inhibition, 48 h
Experiment [1] deals with PC-3 prostate.
The subject of experiment [2] is SF-268 CNS.
Experiment [3] relates to SK-MEL-5 melanoma.
Experiment [4] deals with NCI-H226 lung.
In experiment [5] the test system is MDA-MB-231 breast.
Experiment [6] concerns OVCAR-4 ovarian.
For experiment [7], the system named is RXF 393 renal.
In experiment [8] the test system is HL-60(TB) leukemia.
Experiment [9] has as its system HOP-92 NSCLC.
Experiment [10] relates to SK-OV-3 ovarian.

“And” between values parts separate entries of the source, which are not always exact repeats. Equal entries are not always repeated.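 All cell lines were grown in 96-well plates and treated with compound for 48 hours. The concentration for 50% growth inhibition is given as GI50. TGI marks complete inhibition of growth.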

`CN(C)c1nc(N)c(C#N)c(C#N)c1C#N`: the TGI in experiment [1], in [2], in [3], in experiment [4], in experiment [5] and in experiment [6] was more than 10 µM each time. In addition, the TGI in experiment [7] was more than 10 µM; in experiment [8], more than 6.07 µM; in [9], more than 10 µM; in experiment [10] it was more than 10 µM.

Regarding `O=c1[nH]c(=S)[nH]c(-c2ccccc2)c1Cc1c(O)ccc2ccccc12`, the TGI was more than 100 µM in [1]; more than 100 µM in [2]; 43.8 µM in experiment [3]; 82.1 µM in experiment [4]; more than 100 µM in [5]; more than 100 µM in [6]. For the same compound, the TGI in [7] is 95.1 µM; in experiment [8] it was 50.5 µM; in experiment [9] it was more than 100 µM; in experiment [10], more than 100 µM.

As to `Nc1nc(C(=O)O)c(N=Nc2ccccc2)c(=O)[nH]1`, the TGI in experiment [1], in [2], in experiment [3], in experiment [4], in experiment [5] and in [6] was more than 100 µM each time. The TGI in experiment [7], in experiment [8], in experiment [9] and in [10] was more than 100 µM each time.

Regarding `N#Cc1c(NC(=O)c2ccccc2F)sc2c1CCCC2`, the GI50 in [1] is more than 25 µM; in [2], more than 25 µM; in experiment [3], more than 22 µM; in [4], more than 25 µM; in [5], more than 23.5 µM; in [6] it was more than 25 µM. The GI50 in experiment [7], in [8], in experiment [9] and in experiment [10] was more than 25 µM in each case. The TGI in experiment [1], in experiment [2], in [3], in experiment [4], in [5] and in experiment [6] was more than 25 µM throughout. The TGI in experiment [7], in [8], in experiment [9] and in experiment [10] was more than 25 µM throughout.

For the compound `CC1CCN(CCOc2ccc(CNc3ccc4nc(CCC5CCCCC5)[nH]c4c3)cc2)CC1`, the GI50 in experiment [1] is 1.44 µM; in experiment [2], 1.68 µM; in experiment [3] it was 1.7 µM; in [4], 1.63 µM; in [5], 1.53 µM; in [6] it was 2.62 µM. Besides, the GI50 in [7] was 1.33 µM; in experiment [8], 1.83 µM; in [9], 0.643 µM; in [10] it was 1.81 µM. For the same compound, the TGI was 2.93 µM in [1]; 3.44 µM in [2]; 3.08 µM in experiment [3]; 3.48 µM in [4]; 2.94 µM in [5]; 8.18 µM in [6]. Moreover, the TGI is 2.84 µM in [7], 3.99 µM in experiment [8], 2.23 µM in experiment [9] and 3.4 µM in [10].

In the case of `C[C@H]1CN(C2COC2)CCN1c1ccc(Nc2cc(-c3ccnc(N4CCn5c(cc6c5CC(C)(C)C6)C4=O)c3CO)cn(C)c2=O)nc1`, the GI50 in experiment [1] was 36.6 µM; in experiment [2], 29.5 µM; in [3], 31.2 µM; in [4] it was 19.6 µM; in [5] it was 26.1 µM; in experiment [6], 22.4 µM. For the same compound, the GI50 in experiment [7] is 40.6 µM; in [8] it was 16.6 µM; in [9], 12.6 µM; in experiment [10], more than 100 µM. Moreover, the TGI in experiment [1] is more than 100 µM; in experiment [2], more than 100 µM; in experiment [3], more than 100 µM; in [4], 46.5 µM; in experiment [5] it was more than 100 µM; in experiment [6] it was more than 100 µM. For the same compound, the TGI was more than 100 µM in experiment [7], 47.2 µM in experiment [8], 64.6 µM in experiment [9] and more than 100 µM in experiment [10].

In the case of `O=C(c1cc(Cc2n[nH]c(=O)c3ccccc23)ccc1F)N1CCN(C(=O)C2CC2)CC1`, the GI50 was 43.1 µM and > 71.4 µM in experiment [1]; 53.2 µM and 59.6 µM in experiment [2]; 27.6 µM and 29.1 µM in [3]; 41.3 µM and 48.8 µM in experiment [4]; more than 100 µM in [5]; 22.7 µM and 36 µM in [6]. Also, the GI50 was 52.1 µM and > 41.4 µM in [7]; more than 100 µM in experiment [8]; more than 100 µM in experiment [10]. For the same compound, the TGI in experiment [1], in experiment [2], in [3], in [4], in [5] and in experiment [6] was more than 100 µM in each case. Further, the TGI in experiment [7], in experiment [8], in experiment [9] and in experiment [10] was more than 100 µM in each case.

`C[C@@H](NC(=O)c1ccc(F)cc1)c1ccc2c(c1)CCN2C(=O)C1CCOCC1`: the GI50 in experiment [1], in experiment [2], in experiment [3], in experiment [4], in experiment [5] and in [6] was more than 100 µM each time. Moreover, the GI50 in experiment [7], in [8], in experiment [9] and in experiment [10] was more than 100 µM each time. For the same compound, the TGI in experiment [1], in experiment [2], in [3], in experiment [4], in experiment [5] and in experiment [6] was more than 100 µM in each case. For the same compound, the TGI in experiment [7], in experiment [8], in experiment [9] and in experiment [10] was more than 100 µM in each case.

With `O=c1[nH]c2ccccc2n1C1CCN(CCCC(c2ccc(F)cc2)c2ccc(F)cc2)CC1`, the GI50 in experiment [1] is 1.41 µM and 7.81 µM; in experiment [3] it was 1.42 µM and 2.13 µM; in experiment [4] it was 1.51 µM and 6.66 µM; in experiment [5], 1.33 µM and 7.38 µM; in experiment [6], 1.23 µM; in experiment [7], 1.17 µM and 1.93 µM. The figures for the GI50 in [8], in experiment [9] and in experiment [10] were 1.82 µM, 0.252 µM and 1.56 µM, respectively. In addition, the TGI in [1] is 3.2 µM and 21.3 µM; in [2] it was 28.9 µM; in [3], 2.74 µM and 4.8 µM; in [4], 2.97 µM and 20.3 µM; in experiment [6], 2.47 µM and 22 µM; in [7] it was 2.44 µM and 5.8 µM. Further, the TGI in experiment [8] is 4.4 µM and 11.9 µM; in experiment [9], 1.71 µM and 14 µM; in [10] it was 3.12 µM and 24.9 µM.

On to `COc1cc(C(=O)/C=C/c2c(C(F)(F)F)nc3ccccn23)cc(OC)c1OC`, for which the GI50 in [1] is 3.8 µM; in [2], 1.64 µM; in experiment [3], 1.62 µM; in experiment [4] it was 3.55 µM; in experiment [5] it was 4.59 µM; in experiment [6] it was 4.1 µM. The GI50 was 1.87 µM in experiment [7], 4.12 µM in [8], 2.65 µM in [9] and 4.04 µM in [10]. The TGI in [1] was 32.8 µM; in [2], 3.52 µM; in [3] it was 3.23 µM; in experiment [4], 21.7 µM; in experiment [5], 19.3 µM; in experiment [6], more than 100 µM. Further, the TGI in [7] is 3.91 µM; in experiment [8], more than 100 µM; in [9], 9.94 µM; in [10], 19 µM.

For `COc1ccc(-c2[nH]c3ccccc3c2/C=C(\C#N)S(=O)(=O)c2ccccc2)cc1`, the GI50 in [1] is 0.533 µM; in experiment [2], 1.13 µM; in experiment [3] it was 0.343 µM; in experiment [4], 2.02 µM; in experiment [5], 0.58 µM; in [6] it was 0.559 µM. In addition, the GI50 was 1.02 µM in experiment [7], 0.287 µM in experiment [8], 1.43 µM in experiment [9] and 0.516 µM in [10]. For the same compound, the TGI in [1] is more than 68.8 µM; in [2] it was more than 45.9 µM; in [3], 2.73 µM; in [4] it was more than 66.4 µM; in [5], more than 60.8 µM; in [6], more than 31.8 µM. Moreover, the TGI is more than 100 µM in experiment [7], 1.5 µM in experiment [8], more than 20.6 µM in experiment [9] and more than 25.3 µM in experiment [10].

Take `COc1cc(-c2ncn(/C=C\c3nnco3)n2)cc(C(F)(F)F)c1`: the GI50 in experiment [1] was 0.189 µM; in [2], 0.0891 µM; in experiment [3], 0.411 µM; in [4], 0.0312 µM; in experiment [5] it was 0.208 µM; in experiment [6] it was 0.211 µM. Moreover, the GI50 was 0.0307 µM in experiment [7], 0.0809 µM in [8], 0.952 µM in [9] and 0.979 µM in experiment [10]. Besides, the TGI in experiment [1] is more than 100 µM; in experiment [2] it was 23.9 µM; in experiment [3], 4.39 µM; in experiment [4] it was 4.3 µM; in experiment [5], more than 71.2 µM; in experiment [6], more than 72.4 µM. The TGI in experiment [7] is 0.198 µM; in experiment [8] it was 13.1 µM; in experiment [9], 46.5 µM; in experiment [10], more than 100 µM.

For the compound `CN1C(=NCCO)NS(=O)(=O)c2ccccc21`, the TGI in experiment [1], in experiment [2], in experiment [3], in [4], in [5] and in experiment [6] was more than 100 µM each time. For the same compound, the TGI in [7], in experiment [8], in [9] and in [10] was more than 100 µM in each case.

As for `COC(=O)c1cc([N+](=O)[O-])cc([N+](=O)[O-])c1Cl`, the GI50 is 1.88 µM in [1]; 12.7 µM in [2]; 3.03 µM in [3]; 3.58 µM in experiment [4]; 2.34 µM in [5]; 1.76 µM in [6]. The GI50 in experiment [7] was 1.72 µM; in experiment [8], 3.98 µM; in experiment [9] it was 1.64 µM; in [10], 17.5 µM. Moreover, the TGI worked out at 3.91 µM in experiment [1]; 25.4 µM in experiment [2]; 10.9 µM in experiment [3]; 13.9 µM in experiment [4]; 5.79 µM in experiment [5]; 3.17 µM in [6]. The TGI stood at 3.12 µM in experiment [7], 27.5 µM in experiment [8], 3.04 µM in experiment [9] and 31.3 µM in experiment [10].

With `CN1CCCC1c1cccnc1.O=C(O)c1ccccc1O.O=C([O-])c1ccccc1[OH2+].O=C([O-])c1ccccc1[OH2+].[Mn+2]` (configuration not stated), the GI50 in [1] is 58.1 µM; in experiment [2], 31.6 µM; in experiment [3] it was more than 100 µM; in experiment [4], more than 100 µM; in experiment [5], more than 100 µM; in experiment [6], more than 100 µM. Also, the GI50 in [7], in [8], in experiment [9] and in experiment [10] was more than 100 µM in each case. Further, the TGI in experiment [1], in [2], in [3], in experiment [4], in experiment [5] and in [6] was more than 100 µM in each case. Besides, the TGI in [7], in [8], in [9] and in experiment [10] was more than 100 µM in each case.

On to `COc1ccc2c(c1)C(=O)c1c-2c(=O)n(CCCN(C)C)c2cc(OC)c(OC)cc12`, for which the GI50 was 11.4 µM in experiment [1]; 0.427 µM in [2]; 86.1 µM in experiment [3]; 3.39 µM in experiment [4]; 14.4 µM in [5]; 12.6 µM in [6]. For the same compound, the GI50 was 11.2 µM in [7], 10.4 µM in experiment [8], more than 100 µM in experiment [9] and 5.15 µM in experiment [10]. The TGI was 26.5 µM in [1]; 15.2 µM in [2]; more than 100 µM in [3]; more than 100 µM in experiment [4]; 28.5 µM in experiment [5]; 25.3 µM in experiment [6]. The TGI was 23.6 µM in [7], 31.7 µM in experiment [8], more than 100 µM in [9] and 19.5 µM in experiment [10].

The record behind these values is PubChem BioAssay (NCI).
